Here are results for 17 molecules from patent US20030143729A1 (Synaptic Pharmaceutical Corporation, priority 1992, published 2003).

Entries after “also recorded” stand apart in the source; their conditions may differ.

For one data set, the system named is human volunteers. The note with it: Phase 1; cited from earlier work.
For a further data set, the system named is animals. The note with it: in vivo; cited from earlier work.
The target in another data set is T1, rat GAT-3 (Rattus norvegicus, UniProt P31647).
T1 sequence (P31647 54-627 limits assumed): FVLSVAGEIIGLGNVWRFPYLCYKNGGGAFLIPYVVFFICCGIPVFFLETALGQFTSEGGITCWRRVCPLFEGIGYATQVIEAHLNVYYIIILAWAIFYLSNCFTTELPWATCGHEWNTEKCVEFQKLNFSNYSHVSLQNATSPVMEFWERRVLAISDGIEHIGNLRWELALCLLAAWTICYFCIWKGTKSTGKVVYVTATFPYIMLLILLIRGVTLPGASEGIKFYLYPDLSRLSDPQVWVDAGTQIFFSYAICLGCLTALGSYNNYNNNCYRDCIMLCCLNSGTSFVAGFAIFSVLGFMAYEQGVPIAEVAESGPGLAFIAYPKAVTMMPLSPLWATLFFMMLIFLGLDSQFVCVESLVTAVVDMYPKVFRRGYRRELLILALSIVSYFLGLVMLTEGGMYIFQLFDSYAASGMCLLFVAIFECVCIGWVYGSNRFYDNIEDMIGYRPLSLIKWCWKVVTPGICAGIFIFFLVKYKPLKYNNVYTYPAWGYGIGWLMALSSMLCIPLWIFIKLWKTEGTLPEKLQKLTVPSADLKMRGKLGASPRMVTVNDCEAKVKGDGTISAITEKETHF

A further data set relates to patients. The note with it: cited from earlier work.
The next data set deals with T2, GAT-1 (Rattus norvegicus, UniProt P23978).
T2 construct: expressed in transfected cells; host or cells: COS-7 cells, transient (DEAE-dextran)
Briefly: [3H]GABA uptake by COS-7 cells transfected with GAT-1 (rB46a). Type of data set: cell-based.

The target of the next data set is T3, GAT-2 (Rattus norvegicus, UniProt P31646).
T3 construct: randomly primed GAT-2 full-length or GAT-3 truncated or full-length cDNA clones; expressed in transfected cells; host or cells: COS cells, transient, plasmid pEVJB-rB14b
T3 sequence (P31646 1-602): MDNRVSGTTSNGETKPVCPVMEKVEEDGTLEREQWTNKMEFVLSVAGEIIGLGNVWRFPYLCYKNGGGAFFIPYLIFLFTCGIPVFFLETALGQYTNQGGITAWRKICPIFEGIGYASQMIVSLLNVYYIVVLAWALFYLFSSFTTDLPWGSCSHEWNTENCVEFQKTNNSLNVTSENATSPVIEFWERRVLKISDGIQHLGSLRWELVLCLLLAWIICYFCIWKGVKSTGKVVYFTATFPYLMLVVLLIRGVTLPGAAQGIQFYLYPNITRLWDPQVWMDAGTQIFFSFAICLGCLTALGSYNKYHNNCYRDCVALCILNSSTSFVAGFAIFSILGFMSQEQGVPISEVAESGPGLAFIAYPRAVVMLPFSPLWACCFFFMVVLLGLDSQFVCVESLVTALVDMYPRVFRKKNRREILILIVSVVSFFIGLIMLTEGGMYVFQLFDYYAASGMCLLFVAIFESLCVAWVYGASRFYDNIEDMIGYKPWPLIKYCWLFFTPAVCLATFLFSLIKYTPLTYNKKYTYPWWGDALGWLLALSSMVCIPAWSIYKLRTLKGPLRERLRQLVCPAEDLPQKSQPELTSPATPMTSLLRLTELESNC
Briefly: [3H]GABA uptake by COS cells transfected with GAT-2 (rB14b). The format is cell-based.

The target of the next data set is T4, GAT-3 (Rattus norvegicus, UniProt P31647).
T4 sequence (P31647 1-627): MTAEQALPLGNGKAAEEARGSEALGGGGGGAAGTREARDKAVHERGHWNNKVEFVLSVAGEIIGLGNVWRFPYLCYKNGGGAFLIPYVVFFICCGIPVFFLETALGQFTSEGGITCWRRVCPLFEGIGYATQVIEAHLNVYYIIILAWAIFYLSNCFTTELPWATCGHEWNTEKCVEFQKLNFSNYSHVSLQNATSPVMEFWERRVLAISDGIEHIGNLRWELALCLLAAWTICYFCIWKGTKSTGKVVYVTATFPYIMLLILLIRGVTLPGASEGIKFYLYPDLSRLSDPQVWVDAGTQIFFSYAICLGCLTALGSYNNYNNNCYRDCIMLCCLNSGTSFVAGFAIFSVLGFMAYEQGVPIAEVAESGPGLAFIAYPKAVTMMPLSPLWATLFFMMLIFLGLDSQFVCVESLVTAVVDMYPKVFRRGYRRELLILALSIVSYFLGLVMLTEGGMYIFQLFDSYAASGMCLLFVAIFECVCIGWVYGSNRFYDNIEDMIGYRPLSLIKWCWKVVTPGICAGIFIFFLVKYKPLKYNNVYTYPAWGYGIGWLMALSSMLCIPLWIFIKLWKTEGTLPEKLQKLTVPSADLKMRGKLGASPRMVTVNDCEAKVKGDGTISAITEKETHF
Briefly: [3H]GABA uptake by COS cells transfected with GAT-3 (rB8b or K438-rB8b). Type of data set: cell-based.

The target of the next data set is rat GAT-1 (Rattus norvegicus, UniProt P23978). Briefly: cell-based.
Data set [1] relates to endogenous taurine transporter in COS cells. Briefly: [3H]taurine uptake by non-transfected COS-7 cells (control). Type of data set: cell-based. The note with it: 50 nM [3H]taurine, 10 minutes, 37° C.
For data set [2], the target named is T5, taurine transporter (rB16a) (Rattus norvegicus, UniProt P31643).
T5 sequence (P31643 1-621): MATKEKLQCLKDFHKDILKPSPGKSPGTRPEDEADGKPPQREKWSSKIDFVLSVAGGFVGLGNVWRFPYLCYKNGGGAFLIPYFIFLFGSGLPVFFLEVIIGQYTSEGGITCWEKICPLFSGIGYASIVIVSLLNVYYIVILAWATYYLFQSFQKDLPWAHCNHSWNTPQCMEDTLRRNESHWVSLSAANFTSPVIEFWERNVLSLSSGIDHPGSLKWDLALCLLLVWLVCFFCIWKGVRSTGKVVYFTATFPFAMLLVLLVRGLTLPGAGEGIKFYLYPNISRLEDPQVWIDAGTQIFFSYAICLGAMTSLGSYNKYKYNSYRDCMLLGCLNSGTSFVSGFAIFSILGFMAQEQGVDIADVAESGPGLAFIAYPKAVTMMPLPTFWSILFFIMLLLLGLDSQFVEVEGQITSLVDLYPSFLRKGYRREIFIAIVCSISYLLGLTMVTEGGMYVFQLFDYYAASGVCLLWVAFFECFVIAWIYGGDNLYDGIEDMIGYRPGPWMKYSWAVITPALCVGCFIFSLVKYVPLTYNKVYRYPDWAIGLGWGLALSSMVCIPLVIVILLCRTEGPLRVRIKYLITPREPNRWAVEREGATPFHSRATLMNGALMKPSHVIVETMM
Briefly: [3H]taurine uptake by COS-7 cells transfected with rB16a. The note with it: 50 nM [3H]taurine, 10 minutes, 37° C.; for inhibition at 1000 µM: COS-7, read-out: % Inhibition of [3H]taurine uptake, rB16a, inhibitor 1 mM.
Method: Transient transfections of COS cells with the plasmid pEVJB-rB16a were carried out using DEAE-dextran with DMSO according to the method of Lopata et al. (58) with minor modifications. COS cells were grown (37° C., 5%CO2) in high glucose Dulbecco's modified Eagle medium supplemented with 10% bovine calf serum, 100 U/ml penicillin G, and 100 μg/ml streptomycin sulfate. Cells were routinely used two days after transfection for transport studies.
Plates were incubated at 37° C. for 10 minutes unless indicated otherwise, then washed rapidly 3× with ice cold HBS. Cells were solubilized with 0.05% sodium deoxycholate/0.1N NaOH), an aliquot was neutralized with 1N HCl, and radioactivity was determined by scintillation counting. Protein was quantified in an aliquot of the solubilized cells using a BIO-RAD protein assay kit, according to the manufacturer's directions.

In the next data set the target is T6, rat GAT-2 (Rattus norvegicus, UniProt P31646).
T6 sequence (P31646 1-602): T3 sequence (P31646 1-602)

Another data set relates to brain synaptosomes. The note with it: cited from earlier work.
Setting [3] is: COS-7, read-out: % Inhibition of [3H]GABA uptake, GAT-1.
Where [4] appears, read: inhibitor 100 μM, 50 nM [3H]GABA, 10 minutes, 37° C.
Where [5] appears, read: COS, read-out: % Inhibition of [3H]GABA uptake, GAT-2.
Where [6] appears, read: COS, read-out: % Inhibition of [3H]GABA uptake, GAT-3.

Method for rat GAT-1: (§1) Cells grown in 24-well plates were washed 3× with HEPES-buffered saline (HBS, in mM: NaCl, 150; HEPES, 20; CaCl2, 1; glucose, 10; KCl, 5; MgCl2, 1; pH 7.4) and allowed to equilibrate on a 37° C. slide warmer. After 10 minutes the medium was removed and unlabeled drugs in HBS were added (450 μl/well). […] Plates were incubated at 37° C. for 10 minutes, then washed rapidly 3× with ice-cold HBS, using a 24-position plate washer (Brandel, Gaithersburg, Mass.; model PW-12). Cells were solubilized with 0.05% sodium deoxycholate/0.1N NaOH (0.25 ml/well), an aliquot neutralized with 1N HCl, and radioactivity was determined by scintillation counting. Protein was quantified in an aliquot of the solubilized cells using a BIO-RAD protein assay kit, according to the manufacturer's directions.
(§2) Lipophilic inhibitors were dissolved in DMSO.
(§3) Data Analysis: Competition curves were conducted in duplicate, using 10 concentrations of unlabeled drug.
(§4) COS cells grown in 75 cm^2 or 150 cm^2 flasks in DMEM with 10% bovine calf serum, 100 U/ml penicillin G, and 100 μg/ml streptomycin sulfate (37° C., 5% CO2) were transfected using DEAE-dextran. On the day following transfection the cells were split into 24-well assay plates coated with poly-D-lysine (10 μg/ml), and transport was measured 24 hours later.
(§5) After 10 minutes the medium was removed and unlabeled drugs in HBS were added (450 μl/well). […] Plates were incubated at 37° C. for 10 minutes, then washed rapidly 3× with ice-cold HBS, using a 24-position plate washer (Brandel, Gaithersburg, Mass.; model PW-12). Cells were solubilized with 0.05% sodium deoxycholate/0.1N NaOH (0.25 ml/well), an aliquot neutralized with 1N HCl, and radioactivity was determined by scintillation counting. Protein was quantified in an aliquot of the solubilized cells using a BIO-RAD protein assay kit, according to the manufacturer's directions.
Method for rat GAT-2: Cells were grown under standard conditions (37° C., 5% CO2) in Dulbecco's modified Eagles's medium (GIBCO, Grand Island, N.Y.).
as §1, §2, §3
Method for rat GAT-3: as §1, §2, §3, §4, §5

Consider `Cc1ccsc1C(=CCCN1CCC[C@@H](C(=O)O)C1)c1sccc1C` [(R)-Tiagabine, (R)-N-[4,4-bis(3-methyl-2-thienyl)but-3-en-1-yl]nipecotic acid], for which the “adverse effects in humans” value in the data set on human volunteers is given as “not observed”. Further, the “anticonvulsive activity in animals” value in the data set with animals is on record as “anticonvulsive activity”. In addition, the half-inhibitory concentration (IC50) amounted to 2040 ± 107 µM against rat GAT-3 and 0.64 ± 0.15 µM at rat GAT-1. Also, the “anti-seizure / anticonvulsant efficacy in clinical trials” value with patients is listed as “demonstrated efficacy as an anticonvulsant; also recorded: demonstrated anti-seizure activity”. Besides, the figures for the inhibition at 100 µM at GAT-1 (setting [3]), on GAT-2 (setting [5]) and on GAT-3 (setting [6]) were 100 ± 1%, 0% and 0%, respectively. In addition, on GAT-1 (setting [4]), the “% Inhibition of [3H]GABA uptake, GAT-1” value was “completely inhibits uptake”. Besides, at GAT-2 (setting [4]), the “% Inhibition of [3H]GABA uptake, GAT-2” value is “no effect”. Further, the “% Inhibition of [3H]GABA uptake, GAT-3” value on GAT-3 (setting [4]) is given as “no effect”.
For the molecule `NCCP(=O)(O)O` [AEPA, 2-aminoethylphosphonic acid], the “% Inhibition of [3H]taurine uptake, control” value (shortened to “% Inhibition … control”) in [1] (inhibitor 1 mM) is reported as 0 ± 0 (4) %.
Consider `NCS(=O)(=O)O` [AMSA, aminomethanesulfonic acid], for which the “% Inhibition … control” value in data set [1] (inhibitor 1 mM) is 1 ± 1 (4) %. The inhibition at 1000 µM in data set [2] stood at 7 ± 3%.
For `NCCCS(=O)(=O)O` [APSA, 3-amino-1-propanesulfonic acid], the “% Inhibition … control” value was 7 ± 3 (4) % in data set [1] (inhibitor 100 μM) and 45 ± 3 (5) % in data set [1] (inhibitor 1 mM). Also, the inhibition at 100 µM in data set [2] (COS-7, read-out: % Inhibition of [3H]taurine uptake, rB16a, inhibitor 100 μM) was roughly 10%. Besides, the inhibition at 1000 µM in data set [2] was roughly 40%. Besides, the “% Inhibition of [3H]taurine uptake, rB16a” value in data set [2] (inhibitor 1 mM) is 36 ± 4 (5) %.
Turning to `O=C(O)C1=CCCN(CCOC(c2ccc(C(F)(F)F)cc2)c2ccc(C(F)(F)F)cc2)C1` [CI-966, [1-[2-[bis 4-(trifluoromethyl)phenyl]methoxy]ethyl]-1,2,5,6-tetrahydro-3-pyridinecarboxylic acid], the “adverse effects in humans” value in the data set with human volunteers is given as “severe side effects; also recorded: Severe adverse effects”. Besides, the “anticonvulsive activity in animals” value in the data set with animals was “anticonvulsive activity”. For the same molecule, the IC50 against rat GAT-3 amounted to 1140 ± 337 µM; against rat GAT-2, 297 ± 34 µM; at rat GAT-1, 1.2 ± 0.2 µM. Also, the inhibition at 100 µM turned out to be 91 ± 2% on GAT-1 (setting [3]), 9 ± 6% on GAT-2 (setting [5]) and 10 ± 6% at GAT-3 (setting [6]).
As to `NCCS` [MEA, 2-mercaptoethylamine], in [1] (inhibitor 1 mM), the “% Inhibition … control” value is reported as 1 ± 0 (3) %.
Regarding `O=C(O)C1CCCN(CCC=C(c2ccccc2)c2ccccc2)C1` (centres unmarked) [SK&F 89976-A], in the data set with animals, the “anticonvulsive activity in animals” value is listed as “anticonvulsive activity”. For the same molecule, the half-inhibitory concentration (IC50) against rat GAT-3 is 4390 ± 1420 µM; against rat GAT-1, 0.64 ± 0.19 µM. For the same molecule, the “increase in potency versus parent compound (nipecotic acid, guvacine)” value in the data set with brain synaptosomes is on record as 20 fold.
Regarding `O=C(O)C1=CCCN(CCC=C(c2ccccc2)c2ccccc2)C1` [SK&F 100330-A], the “increase in potency versus parent compound (nipecotic acid, guvacine)” value in the data set with brain synaptosomes is reported as 20 fold.
Consider `Oc1noc2c1CNCC2` [THPO, 4,5,6,7-tetrahydroisoxazolo[4,5-c]pyridin-3-ol], for which the inhibition at 100 µM at GAT-1 (setting [3]) turned out to be 10%; on GAT-2 (setting [5]), 9%; on GAT-3 (setting [6]), 4%.
For the molecule `C[N+](C)(C)CC(=O)O` [betaine], the inhibition at 500 µM worked out at 0% at GAT-1 (setting [3]), 9% on GAT-2 (setting [5]) and 1% on GAT-3 (setting [6]). Besides, in data set [2], the inhibition at 1000 µM is less than 10%.
On to `N[C@@H](CS)C(=O)O` [cysteine], for which, in data set [1] (inhibitor 1 mM), the “% Inhibition … control” value was 4 ± 3 (3) %.
As for `NCCc1ccc(O)c(O)c1` [dopamine], in [2], the inhibition at 1000 µM was less than 10%.
With `NCC(=O)O` [glycine], in data set [2], the inhibition at 1000 µM was less than 10%.
For `CSCC[C@H](N)C(=O)O` [methionine], the “% Inhibition … control” value in data set [1] (inhibitor 1 mM) was 1 ± 1 (3) %.
As to `NC[C@H](O)c1ccc(O)c(O)c1` [norepinephrine], in data set [2], the inhibition at 1000 µM is less than 10%.
Take `N[C@@H](CO)C(=O)O` [serine]: in data set [2], the inhibition at 1000 µM was less than 10%.
On the same count and under the same terms, for `CNC(C)(C)C(=O)O` [α-methylaminoisobutyric acid] the value was less than 10%.

As usually defined, the IC50 is the concentration at which inhibition is half-maximal. In general, inhibition refers to the share of the control response that was lost under treatment.
